Experimental findings from patent US20100190788A1, “Amide derivatives as kinase inhitors” (priority 2005, published 2010) are described below.

The assay addresses T1, human ROCKα/ROCKII mix (Homo sapiens, UniProt O75116).
T1 construct: purchased Upstate Biotechnology 14-451
The assay can be described thus: ROCK inhibition, fluorescence polarization (FP) assay with ROCK IMAP Kit. In kind it is biochemical. The procedure:
The compounds were tested for inhibition of human ROCKα/ROCKII mix.
The inhibition assays were performed with a fluorescence polarization (FP) assay using the commercially available ROCK IMAP Kit from Molecular Devices (Product ID. No. R8093), essentially in accordance with the protocol supplied by the manufacturer. […] The enzyme mix ROCKα/ROCKII was obtained from Upstate Biotechnology (Product ID No 14-451).
In summary, all compounds were screened in the wells of a 384 well plate for enzymatic inhibition with concentrations varying from 100 μM to 0.3 nM using a stepwise 3 (or 2)-fold dilution.
To perform the assay, 1 μl of a solution of the compound to be tested in DMSO (at each concentration) was added to 2 μl of a solution of the enzyme in 10 mM Tris-HCl, 10 mM MgCl2, 0.1% BSA, 0.05% NaN3, pH 7.2. The final concentration of the enzyme was 2.6 nM.
After incubating for 30 minutes at RT, 2 μl of a mixture of ATP and the protein substrate in 10 mM Tris-HCl, 10 mM MgCl2, 0.1% BSA, 0.05% NaN3, pH 7.2 was added. The final concentration of the ATP was 10 μM and final concentration of protein substrate was 0.2 μM.
After incubating for 60 minutes at RT, 12 μl of the IMAP Binding Solution (mix of the IMAP Binding Buffer A (1×) and the IMAP Binding Reagent (from the ROCK IMAP kit)) was added.
The mixture thus obtained (total volume: 17 μl) was incubated for 60 minutes at RT, upon which the fluorescence polarization was measured using an automated plate reader (Perkin Elmer, Model Envision 2100-0010 HTS) with FP filters: excitation filter FITC FP 480 and emission filters FITC FP P-pol 535 and FITC FP S-pol 535 (Perkin-Elmer). The results were fitted to a curve using the XL-Fit algorithm and IC50 values were calculated for each fitted curve, again using the XL-Fit algorithm.

Setting [1] is: Table 1, compounds of Formula IV20.
[2] abbreviates: Table 2, compounds of Formula V20.
Setting [3] is: Table 3, compounds of Formula III20.

Where a name gives a salt, the structure may show the parent alone. Bounds are passed on as bounds.

T1 sequence (O75116 whole entry): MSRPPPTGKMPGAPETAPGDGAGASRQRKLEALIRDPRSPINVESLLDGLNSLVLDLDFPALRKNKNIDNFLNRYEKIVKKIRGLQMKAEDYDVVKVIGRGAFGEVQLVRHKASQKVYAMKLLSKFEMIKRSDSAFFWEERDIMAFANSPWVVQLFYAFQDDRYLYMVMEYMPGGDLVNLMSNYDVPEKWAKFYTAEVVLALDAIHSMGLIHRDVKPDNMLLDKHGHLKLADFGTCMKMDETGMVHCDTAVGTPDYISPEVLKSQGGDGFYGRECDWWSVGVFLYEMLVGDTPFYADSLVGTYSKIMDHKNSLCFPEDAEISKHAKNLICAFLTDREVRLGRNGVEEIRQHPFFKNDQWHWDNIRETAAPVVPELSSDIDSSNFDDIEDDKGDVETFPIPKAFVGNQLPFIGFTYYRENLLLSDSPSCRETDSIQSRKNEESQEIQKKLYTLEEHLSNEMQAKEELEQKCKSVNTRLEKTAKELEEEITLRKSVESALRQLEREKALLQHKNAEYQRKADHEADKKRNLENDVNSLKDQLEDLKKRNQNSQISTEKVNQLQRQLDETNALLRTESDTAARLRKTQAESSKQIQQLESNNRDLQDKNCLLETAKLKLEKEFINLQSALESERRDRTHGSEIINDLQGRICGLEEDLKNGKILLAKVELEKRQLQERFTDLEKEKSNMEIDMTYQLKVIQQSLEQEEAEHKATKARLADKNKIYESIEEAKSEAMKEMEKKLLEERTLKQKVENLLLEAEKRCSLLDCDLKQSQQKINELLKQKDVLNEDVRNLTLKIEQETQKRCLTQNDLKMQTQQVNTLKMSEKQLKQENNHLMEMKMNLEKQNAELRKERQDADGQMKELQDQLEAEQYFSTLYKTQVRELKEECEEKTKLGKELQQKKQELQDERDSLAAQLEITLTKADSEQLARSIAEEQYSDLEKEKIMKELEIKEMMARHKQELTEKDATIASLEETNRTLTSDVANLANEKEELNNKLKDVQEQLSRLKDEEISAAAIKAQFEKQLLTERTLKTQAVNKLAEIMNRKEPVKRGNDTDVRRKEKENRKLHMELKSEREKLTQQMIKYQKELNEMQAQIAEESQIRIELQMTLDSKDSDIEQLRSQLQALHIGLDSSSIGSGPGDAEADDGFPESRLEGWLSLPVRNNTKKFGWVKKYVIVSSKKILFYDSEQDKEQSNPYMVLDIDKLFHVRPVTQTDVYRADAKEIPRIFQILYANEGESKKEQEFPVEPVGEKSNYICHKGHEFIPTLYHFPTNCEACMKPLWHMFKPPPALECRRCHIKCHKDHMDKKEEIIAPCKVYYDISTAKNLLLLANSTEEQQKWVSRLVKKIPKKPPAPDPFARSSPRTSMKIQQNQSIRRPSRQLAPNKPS

On to `CCC(NC(=O)C(N)c1ccc(C(=O)Nc2ccncc2)cc1)c1ccccc1` (stereo not shown) [Compound 4, 4-[amino-(1-phenyl-propylcarbamoyl)-methyl]-N-pyridin-4-yl-benzamide], for which the IC50 under setting [1] is < 0.5 µM. On the same count and under the same terms, the result for `NC(C(=O)N1CCC(c2ccccc2)CC1)c1ccc(C(=O)Nc2ccncc2)cc1` (stereo not shown) [Compound 28, 4-[1-amino-2-(4-phenyl-piperidin-1-yl)-2-oxo-ethyl]-N-pyridin-4-yl-benzamide] reads 0.5 to 5 µM. Take `N[C@@H](CC(=O)N1CCC[C@H]1c1cccc(F)c1)c1ccc(C(=O)Nc2ccncc2)cc1` [Compound 152, 4-{(S)-1-Amino-3-[(S)-2-(3-fluoro-phenyl)-pyrrolidin-1-yl]-3-oxo-propyl}-N-pyridin-4-yl-benzamide dihydrochloric acid salt]: the IC50 (Table 4, compounds 132 to 156) is < 0.5 µM.

`COCCNC(=O)C(N)c1ccc(C(=O)Nc2ccncc2)cc1` (stereo not shown) [Compound 39, 4-[amino-(2-methoxy-ethylcarbamoyl)-methyl]-N-pyridin-4-yl-benzamide]: the IC50 under setting [1] fell in the range of 0.5 to 5 µM. For the compound `NC(C(=O)N1CCOCC1)c1ccc(C(=O)Nc2ccncc2)cc1` (stereo not shown) [Compound 34, 4-(1-amino-2-mopholin-4-yl-2-oxo-ethyl)-N-pyridin-4-yl-benzamide], under setting [1], the IC50 was < 0.5 µM. Take `NC(C(=O)NCCN1CCOCC1)c1ccc(C(=O)Nc2ccncc2)cc1` (stereo not shown) [Compound 45, 4-[amino-(2-morpholin-4-yl-ethylcarbamoyl)-methyl]-N-pyridin-4-yl-benzamide]: the half-maximal inhibitory concentration (IC50) under setting [1] lay within 0.5 to 5 µM. As for `NC(C(=O)NCc1ccco1)c1ccc(C(=O)Nc2ccncc2)cc1` (stereo not shown) [Compound 12, 4-{amino-[(furan-2-ylmethyl)-carbamoyl]-methyl}-N-pyridin-4-yl-benzamide], the IC50 under setting [1] was < 0.5 µM. Consider `NC(CNS(=O)(=O)c1cccc2nonc12)c1ccc(C(=O)Nc2ccncc2)cc1` (stereo not shown) [Compound 81, 4-[1-amino-2-(benzo[1,2,5]-oxadiazole-4-sulfonylamino)-ethyl]-N-pyridin-4-yl-benzamide], for which the IC50 under setting [2] was < 0.5 µM.

Turning to `COCC(C)NC(=O)C(N)c1ccc(C(=O)Nc2ccncc2)cc1` (stereo not shown) [Compound 43, 4-[amino-(2-methoxy-1-methyl-ethylcarbamoyl)-methyl]-N-pyridin-4-yl-benzamide], the half-inhibitory concentration (IC50) under setting [1] lay in the range of 0.5 to 5 µM. For the compound `N[C@H](C(=O)NCc1ccccc1)c1ccc(C(=O)Nc2ccncc2)cc1` [Compound 155, 4-((S)-Amino-benzylcarbamoyl-methyl)-N-pyridin-4-yl-benzamide dihydrochloric acid salt], the IC50 (Table 4, compounds 132 to 156) was < 0.5 µM. Same read-out and setting: the result for `CN(CC(N)c1ccc(C(=O)Nc2ccncc2)cc1)S(=O)(=O)c1cccc(Cl)c1` (stereo not shown) [Compound 144, 4-{1-Amino-2-[(3-chloro-benzenesulfonyl)-methyl-amino]-ethyl}-N-pyridin-4-yl-benzamide dihydrochloric acid salt] reads 0.5 to 5 µM.

Regarding `COc1ccc(C2c3[nH]c4ccccc4c3CCN2C(=O)CC(N)c2ccc(C(=O)Nc3ccncc3)cc2)cc1Br` (stereo not drawn) [Compound 130, 4-{1-amino-3-[1-(3-bromo-4-methoxy-phenyl)-1,3,4,9-tetrahydro-β-carbolin-2-yl]-3-oxo-propyl}-N-pyridin-4-yl-benzamide], under setting [3], the IC50 lay in the range of 0.5 to 5 µM. Take `NC(CC(=O)N1CCc2c(Cl)cccc2C1)c1ccc(C(=O)Nc2ccncc2)cc1` (stereo not shown) [Compound 102, 4-[1-amino-3-(5-chloro-3,4-dihydro-1H-isoquinolin-2-yl)-3-oxo-propyl]-N-pyridin-4-yl-benzamide]: the IC50 under setting [3] is < 0.5 µM. As for `NC(C(=O)NCCn1cccn1)c1ccc(C(=O)Nc2ccncc2)cc1` (stereo not shown) [Compound 18, 4-[amino-(2-pyrazol-1-yl-ethylcarbamoyl)-methyl]-N-pyridin-4-yl-benzamide], under setting [1], the IC50 was in the range of 0.5 to 5 µM. On to `NC(CC(=O)N1CCOCC1c1ccc(F)cc1)c1ccc(C(=O)Nc2ccncc2)cc1` (stereo not shown) [Compound 101, 4-{1-amino-3-[3-(4-fluoro-phenyl)-morpholin-4-yl]-3-oxo-propyl}-N-pyridin-4-yl-benzamide], for which, under setting [3], the half-inhibitory concentration (IC50) is < 0.5 µM. As to `NC(CNS(=O)(=O)c1cccs1)c1ccc(C(=O)Nc2ccncc2)cc1` (stereo not shown) [Compound 78, 4-[1-amino-2-(thiophene-2-sulfonylamino)-ethyl]-N-pyridin-4-yl-benzamide], the IC50 under setting [2] is < 0.5 µM. With `COc1ccc(CN2CCN(C(=O)C(N)c3ccc(C(=O)Nc4ccncc4)cc3)CC2)cc1` (stereo not shown) [Compound 50, 4-{1-amino-2-[4-(4-methoxy-benzyl)-piperazin-1-yl]-2-oxo-ethyl}-N-pyridin-4-yl-benzamide], under setting [1], the IC50 is 0.5 to 5 µM. Consider `NC(CNS(=O)(=O)c1cccc2nsnc12)c1ccc(C(=O)Nc2ccncc2)cc1` (stereo not shown) [Compound 82, 4-[1-amino-2-(benzo[1,2,5]-thiadiazole-4-sulfonylamino)-ethyl]-N-pyridin-4-yl-benzamide], for which the IC50 under setting [2] is < 0.5 µM.

For the compound `COc1ccccc1CNC(=O)C(N)c1ccc(C(=O)Nc2ccncc2)cc1` (stereo not shown) [Compound 9, 4-(amino-(2-methoxy-benzylcarbamoyl)-methyl]-N-pyridin-4-yl-benzamide], the IC50 under setting [1] was < 0.5 µM. Turning to `NC(CC(=O)N1CCCCC1)c1ccc(C(=O)Nc2ccncc2)cc1` (stereo not shown) [Compound 107, 4-(1-amino-3-oxo-3-piperidin-1-yl-propyl)-N-pyridin-4-yl-benzamide], under setting [3], the IC50 is < 0.5 µM. On to `CC1CC(C)CN(C(=O)C(N)c2ccc(C(=O)Nc3ccncc3)cc2)C1` (stereo not shown) [Compound 27, 4-[1-amino-2-(3,5-dimethyl-piperidin-1-yl)-2-oxo-ethyl]-N-pyridin-4-yl-benzamide], for which the IC50 under setting [1] was < 0.5 µM. On the same count and under the same terms, the result for `NC(C(=O)N1CCCC1c1cccc(F)c1)c1ccc(C(=O)Nc2ccncc2)cc1` (stereo not shown) [Compound 83, 4-{1-amino-2-[2-(3-fluoro-phenyl)-pyrrolidin-1-yl]-2-oxo-ethyl}-N-pyridin-4-yl-benzamide] reads < 0.5 µM. Still for that read-out and setting: next, `NC(C(=O)NCCc1ccccc1)c1ccc(C(=O)Nc2ccncc2)cc1` (stereo not shown) [Compound 14, 4-(amino-phenethylcarbamoyl-methyl)-N-pyridin-4-yl-benzamide]: < 0.5 µM. Consider `NC(CC(=O)N1CCC(Cc2ccccc2)CC1)c1ccc(C(=O)Nc2ccncc2)cc1` (stereo not shown) [Compound 119, 4-[1-amino-3-(4-benzyl-piperidin-1-yl)-3-oxo-propyl]-N-pyridin-4-yl-benzamide], for which the IC50 under setting [3] is < 0.5 µM. Under setting [1], `CC1CCC(NC(=O)C(N)c2ccc(C(=O)Nc3ccncc3)cc2)CC1` (stereo not shown) [Compound 33, 4-[amino-(4-methyl-cyclohexylcarbamoyl)-methyl]-N-pyridin-4-yl-benzamide] displayed an IC50 of 0.5 to 5 µM.

Turning to `COc1ccc(NC(=O)C(N)c2ccc(C(=O)Nc3ccncc3)cc2)cc1` (stereo not shown) [Compound 21], the IC50 under setting [1] was < 0.5 µM. Same read-out and setting: the result for `NC(C(=O)N1CCN(c2ccccc2)CC1)c1ccc(C(=O)Nc2ccncc2)cc1` (stereo not shown) [Compound 47, 4-[1-amino-2-oxo-2-(4-phenyl-piperzin-1-yl)-ethyl]-N-pyridin-4-yl-benzamide] reads 0.5 to 5 µM.

The compound `CN(CC(N)c1ccc(C(=O)Nc2ccncc2)cc1)S(=O)(=O)c1ccc(F)cc1` (stereo not shown) [Compound 140, 4-{1-Amino-2-[(4-fluoro-benzenesulfonyl)-methyl-amino]-ethyl}-N-pyridin-4-yl-benzamide dihydrochloric acid salt] displayed an IC50 (Table 4, compounds 132 to 156) of 0.5 to 5 µM. For `NC(C(=O)NC1Cc2ccccc2C1)c1ccc(C(=O)Nc2ccncc2)cc1` (stereo not shown) [Compound 15, 4-[amino-(indan-2-ylcarbamoyl)-methyl]-N-pyridin-4-yl-benzamide], under setting [1], the IC50 was < 0.5 µM.

On to `NC(CC(=O)N1CCCCC1c1cccc2ccccc12)c1ccc(C(=O)Nc2ccncc2)cc1` (stereo not shown) [Compound 93, 4-[1-amino-3-(2-naphthalen-1-yl-piperidin-1-yl)-3-oxo-propyl]-N-pyridin-4-yl-benzamide], for which the IC50 under setting [3] was < 0.5 µM. Consider `NC(CC(=O)N1CCCC1c1cccc(Cl)c1)c1ccc(C(=O)Nc2ccncc2)cc1` (stereo not shown) [Compound 85, 4-{1-amino-3-[2-(3-chloro-phenyl)-pyrrolidin-1-yl]-3-oxo-propyl}-N-pyridin-4-yl-benzamide], for which the IC50 under setting [3] was < 0.5 µM. On to `NC(CC(=O)N1CCCC1c1ccc(F)cc1F)c1ccc(C(=O)Nc2ccncc2)cc1` (stereo not shown) [Compound 89, 4-{1-amino-3-[2-(2,4-difluoro-phenyl)-pyrrolidin-1-yl]-3-oxo-propyl}-N-pyridin-4-yl-benzamide], for which, under setting [3], the IC50 was < 0.5 µM. As to `NC(CC(=O)N1CCCC1c1cccc(F)c1)c1ccc(C(=O)Nc2ccncc2)cc1` (stereo not shown) [Compound 87, 4-{1-amino-3-[2-(3-fluoro-phenyl)-pyrrolidin-1-yl]-3-oxo-propyl}-N-pyridin-4-yl-benzamide], the IC50 under setting [3] is < 0.5 µM. The compound `CN(CCO)C(=O)C(N)c1ccc(C(=O)Nc2ccncc2)cc1` (stereo not shown) [Compound 42, 4-{amino-[(2-hydroxy-ethyl)-methyl-carbamoyl]-methyl}-N-pyridin-4-yl-benzamide] had an IC50 under setting [1] of 0.5 to 5 µM.
